For series [1], the system named is Abor Acre x Abor Acre Hybrid Broiler Chickens. Kind of series: in vivo. Here is the method: (§1) The inhibitor was dissolved in saline at concentrations ranging form 1 mg/ml to 100 mg/ml and the injection volume ranged from 20 µl to 100 µl producing doses of 20 µg to 10 mg. Injections were made with a 23 G x 1 inch needle. A light source was used to orient the eggs and the injection is made under the air sac into the egg white surrounding the developing embryo. The hole was sealed with Scotch tape and the eggs were placed in a humidified, rocking incubator. At day fourteen of incubation, the embryos were removed form their shells and dissected to observe development of the gonads.
(§2) The procedures are the same as described above.

A short description of the next series: in vivo. Particulars: chicken, embryos in ovo, %Hatched. Here is the method:
as §1, §2

Series [2] has as its system Line 67 White Leghorn embryos. Particulars: in vivo. How it is done:
as §1

Series [3] deals with Line 139 White Leghorn Chickens. Particulars: for Female / Male / Und. (Undetermined): gonadal sex type at day 14, number of embryos; for Survived day 14: number of embryos. Here is the method: as §1
In series [4] the test system is autosexing strains of chickens. How it is done:
(§3) To more easily monitor changes in development as a function of age according to genetic sex two different autosexing strains of chickens were treated as above. All chickens were allowed to reach sexual maturity. […] One of the three was killed after 24 weeks and the remaining two (tag numbers 1977 and 1981) were killed after 31 weeks. Prior to killing blood was taken from each animal and used to determine sex steroid levels. At the time of killing the gonads were removed and fixed for histology in Bouin's fixative.
The right gonad and oviduct of the normal female begins to regress during embryogenesis and at maturity females have a single ovary and oviduct. The remaining left ovary consists of a series of follicles staged to mature at daily intervals.

Another series has as its system turkey embryos. Here is the method:
A light source was used to orient the eggs and the injection is made under the air sac into the egg white surrounding the developing embryo. The hole was sealed with Scotch tape and the eggs were placed in a humidified, rocking incubator. The birds were allowed to hatch and the phenotypic and genotypic sex determined.

For series [5], the system named is hybrids used in Example 3. To be noted: for Estradiol / Testosterone: serum. How it is done:
as §3
Estradiol and testosterone levels were determined in serum samples using commercial RIA assay kits which are well known in the art.

The test system of series [6] is gonads from control males and treated females. To be noted: in vivo.
Protocol: Histological examination of gonads from control males and treated females at 31 weeks of age was carried out on tissue fixed in Bouin's solution prior to embedding in paraffin. Sections were stained with hematoxylin and eosin.
For series [7], the system named is F₁ Hybrids of Rhode Island Males Crossed With Plymouth Barred Rock Females. Kind of series: Gonadal sex type of 14 day embryos after in ovo injection. Format: in vivo, chicken. Here is the method:
Fertilized chicken embryos were injected on day 5 of incubation with the aromatase inhibitor 1,4,6-androstatriene-3,17-dione. The inhibitor was dissolved in 1,2-propane-diol at a concentration of 20 mg/ml and the injection volume was 100 µl producing a dose of 2 mg.

The test system of another series is female Mullerian ducts. To be noted: chick embryo; Huston et al., Gen. Comp. Endocrinol. 57: 88-102 (1985); cited from earlier work.
Setting [8] is: Experiment 1, 20 µg injected on day 5.
The mark [9] stands for this setting: Experiment 1, 100 µg injected on day 5.
The mark [10] stands for this setting: Experiment 1, 2 mg injected on day 5.
[11] abbreviates: Experiment 1, 10 mg injected on day 5, none survived.
Setting [12] is: Experiment 2, 100 µg injected on day 4.
[13] abbreviates: Experiment 2, 1 mg injected on day 4.
Where [14] appears, read: Experiment 3, 100 µg injected on day 5.
Where [15] appears, read: Experiment 3, 1 mg injected on day 5.
Setting [16] is: animal 1977, treated genetic female, phenotypic male, 31 weeks.
The mark [17] stands for this setting: animal 1978, treated genetic male.
The mark [18] stands for this setting: animal 1981, treated genetic female, phenotypic male, 31 weeks.
Setting [19] is: gonadal sex type at day 14, number of embryos, 2.0 mg injected on day 5.

This is an account of results in EP0433084A2, “Use of aromatese inhibitors for the reversal of female sexual phenotype in poultry” (MERCK & CO. INC., priority 1989, dated 1991).

Counter-ions that a name gives are not always drawn. Like-named read-outs stand apart in the source and are kept apart here.

Regarding `N#Cc1ccc(C2CCCc3cncn32)cc1` (racemic) [± 5-(p-cyanophenyl)-5,6,7,8-tetrahydroimidazo [1,5-α] pyridine hydrochloride], the Female in series [1] (10 µg injected on day 5) amounted to 36; in series [1] (50 µg injected on day 0) it was 2; in [1] (50 µg injected on day 5), 0; in [1] (100 µg injected on day 5) it was 0; in series [3] (setting [8]) it was 2; in [3] (setting [9]), 0. Also, the Female in series [3] (setting [10]), in series [3] (setting [11]), in [3] (setting [12]), in series [3] (setting [13]), in [3] (setting [14]) and in series [3] (setting [15]) was 0 each time. The Male in series [1] (10 µg injected on day 5) is 60; in series [1] (50 µg injected on day 0), 45; in series [1] (50 µg injected on day 5) it was 88; in [1] (100 µg injected on day 5) it was 91; in series [3] (setting [8]), 0; in series [3] (setting [9]) it was 3. For the same molecule, the Male in series [3] (setting [10]) was found to be 2; in series [3] (setting [11]), 0; in series [3] (setting [12]), 3; in [3] (setting [13]), 4; in [3] (setting [14]), 4; in series [3] (setting [15]), 5. Moreover, the survival was found to be 72% in the series “in vivo” (0.01 mg, 10 µg injected on day 5); 40% in the series “in vivo” (0.05 mg, 50 µg injected on day 0); 67% in “in vivo” (0.05 mg, 50 µg injected on day 5); 69% in the series “in vivo” (0.1 mg, 100 µg injected on day 5). Moreover, the “vent sexed as males” value in [2] is given as “all birds”. For the same molecule, the “Und. (Undetermined)” value in series [3] (setting [8]) is reported as 0; in series [3] (setting [9]), 0; in series [3] (setting [10]) it was 0; in [3] (setting [11]), 0; in series [3] (setting [12]) it was 1; in series [3] (setting [13]) it was 0. Besides, the “Und. (Undetermined)” value amounted to 1 in [3] (setting [14]) and 0 in [3] (setting [15]). Moreover, the “Survived day 14” value in [3] (Experiment 1, 20 µg injected on day 5, 4 injected) was found to be 2; in [3] (Experiment 1, 100 µg injected on day 5, 4 injected), 3; in series [3] (Experiment 1, 2 mg injected on day 5, 4 injected) it was 2; in series [3] (Experiment 1, 10 mg injected on day 5, 4 injected), 0; in series [3] (Experiment 2, 100 µg injected on day 4, 5 injected), 4; in series [3] (Experiment 2, 1 mg injected on day 4, 6 injected) it was 4. For the same molecule, the “Survived day 14” value in [3] (Experiment 3, 100 µg injected on day 5, 7 injected) is recorded as 5; in series [3] (Experiment 3, 1 mg injected on day 5, 7 injected), 5. Also, in series [4] (31 week old, abdominal cavities opened, compared with control females), the “abdominal fat of treated females” value was “absence of abdominal fat”. In series [4] (Sex-Sal autosexing strain, injected day 4 or 5, at sexual maturity), the “treated females developed a male phenotype” value is recorded as “one of two”. The “appearance and behavior of treated females” value in series [4] (by seven months of age, injected day 4 or 5) was “obviously masculine in appearance and behavior”. Besides, the “adult females developed male phenotypes” value in series [4] (hybrids used in Example 3, injected day 4 or 5, at sexual maturity) was “three of four”. Further, in series [4] (two gonads without oviducts, at necropsy), the “presence of testes in treated females” value was “three of the four”. In the series on turkey embryos (1 mg, 2 pipped embryos and 2 embryos that died after 25 and 27 days of incubation), the “phenotype of unhatched embryos” value is “All embryos were phenotypic male”. Further, the “vent sexed as male” value in the series with turkey embryos (1 mg, of 4 hatched birds, 2 feather-sexed as female and 2 as male) is given as 4. Moreover, the birds hatched result in the series on turkey embryos (eggs inoculated with 1 mg, day 4 or 5 of incubation) is reported as “Four”. The “serum hormone profiles of treated females” value in [5] (31 week old) is recorded as “resembling adult males”. For the same molecule, the Estradiol amounted to 57 ng/mL in series [5] (animal 1976, treated genetic female that did not respond, phenotypically female); 12 ng/mL in [5] (setting [16]); 5 ng/mL in [5] (setting [17]); 2 ng/mL in series [5] (setting [18]). Besides, the figures for the Testosterone in series [5] (setting [16]), in series [5] (setting [17]) and in [5] (setting [18]) were 224 ng/mL, 412 ng/mL and 109 ng/mL, respectively. In addition, in series [6], the “seminiferous tubules in gonads of treated females” value was “present in both the left and right gonads”.

In series [7] (2 mg injected on day 5, gonads at day 14), `C[C@]12C=CC(=O)C=C1C=C[C@@H]1[C@@H]2CC[C@]2(C)C(=O)CC[C@@H]12` [1,4,6-androstatriene-3,17-dione] returned a birds being males of 100%. Moreover, in series [7] (setting [19]), the Female is recorded as 0 and the Male stood at 5. Also, the “Survived day 14” value in series [7] (number of embryos, 2.0 mg in 1,2-propane-diol injected on day 5) amounted to 5.

Regarding `O=C(c1ccc(OCCN2CCCC2)cc1)c1c(-c2ccc(O)cc2)sc2cc(O)ccc12` [LY117018], the “effect on the female Mullerian ducts” value with female Mullerian ducts is reported as “little effect”.

With `C#C[C@]1(O)CC[C@H]2[C@@H]3CCC4=CC(=O)CC[C@@H]4[C@H]3CC[C@@]21C` [norethindrone], the “effect on the female Mullerian ducts” value in the series with female Mullerian ducts is “partial regression of the upper end of the left Mullerian duct as well as complete loss of the lower ends of both ducts”.

For `CC/C(=C(\c1ccccc1)c1ccc(OCCN(C)C)cc1)c1ccccc1` [tamoxifen], in the series on female Mullerian ducts, the “effect on the female Mullerian ducts” value is “little effect”.
